The record followed here is patent publication US12091409B2, “Ether linked triazoles as NRF2 activators” (ASTEX THERAPEUTICS LIMITED, priority 2016, dated 2024).

Structures can show the parent of a compound that is named as a salt. Bounds are passed on as bounds.

The subject of this assay is NQO1 specific enzyme activity in BEAS-2B cells (marker for NRF2 activation). The assay can be described thus: BEAS-2B NQO1 MTT Assay. Type of assay: cell-based. Particulars: Homo sapiens, BEAS-2B, 48 h, NQO1 specific activity induction, 48 hours with compound. From the text: NAD(P)H:quinone oxidoreductase 1 (NQO1), also called DT diaphorase, is a homodimeric FAD-containing enzyme that catalyzes obligatory NAD(P)H-dependent two-electron reductions of quinones and protects cells against the toxic and neoplastic effects of free radicals and reactive oxygen species arising from one-electron reductions. The transcription of NQO1 is finely regulated by NRF2, and thus NQO1 activity is a good marker for NRF2 activation. On day one, frozen BEAS-2B cells (ATCC) were thawed in a water bath, counted, and re-suspended at a concentration of 250,000 cells/mL. Fifty microliters of cells were plated in 384 well black clear-bottomed plates. Plates were incubated at 37° C., 5% CO2 overnight. On day two, plates were centrifuged and 50 nL of compound or controls were added to the cells. Plates were then incubated at 37° C., 5% CO2 for 48 hours. On day four, medium was aspirated from the plate and crude cell lysates were made by adding 13 uL of 1× Cell Signaling Technologies lysis buffer with 1 Complete, Mini, EDTA-free Protease Inhibitor Tablet (Roche) for each 10 mL of lysis buffer. After lysis plates were incubated for 20 minutes at room temperature. Two microliters of lysate were removed for use in Cell Titer Glo assay (Promega) and MTT cocktail was prepared (Prochaska et. al. 1998) for measurement of NQO1 activity. Fifty microliters of MTT cocktail was added to each well, plate was centrifuged, and analyzed on an Envision plate reader (Perkin Elmer) using Absorbance 570 nm label for 30 minutes. Product formation was measured kinetically and the pEC50 of NQO1 specific activity induction was calculated by plotting the change in absorbance (Delta OD/min) versus the log of compound concentration followed by 3-parameter fitting.
pEC50 is the negative log of the EC50.
EC50s<1 nM (+++++), EC50s 1 nM-10 nM (++++), EC50s 10 nM-100 nM (+++), EC50s 100 nM-1 uM (++), EC50s 1 uM-10 uM (+); EC50s>10 uM (−), or were not determined (ND).
As usually defined, the EC50 is the concentration giving half of the maximal effect. As for `Cc1ccc(C(OCc2cn(Cc3cccc(-c4cccc(C(=O)O)c4)c3)nn2)C(C)(C)C(=O)O)cc1CN1C[C@@H](C)Oc2ccccc2S1(=O)=O` (stereo partly drawn) [Example 26, 3′-((4-((2-Carboxy-2-methyl-1-(4-methyl-3-(((R)-4-methyl-1,1-dioxido-3,4-dihydro-2H-benzo[b][1,4,5]oxathiazepin-2-yl)methyl)phenyl)propoxy)methyl)-1H-1,2,3-triazol-1-yl)methyl)-[1,1′-biphenyl]-3-carboxylic acid], the concentration for a half-maximal effect (EC50) was 10 to 100 nM.

With `Cc1ccc(C(OCc2cn(Cc3cccc(Cn4cc(C(C)(C)O)nn4)c3)nn2)C(C)(C)C(=O)O)cc1CN1C[C@@H](C)Oc2ccccc2S1(=O)=O` (stereo partly drawn) [Example 41, 3-((1-(3-((4-(2-Hydroxypropan-2-yl)-1H-1,2,3-triazol-1-yl)methyl)benzyl)-1H-1,2,3-triazol-4-yl)methoxy)-2,2-dimethyl-3-(4-methyl-3-(((R)-4-methyl-1,1-dioxido-3,4-dihydro-2H-benzo[b][1,4,5]oxathiazepin-2-yl)methyl)phenyl)propanoic acid], the EC50 lay in the range of 10 to 100 nM.

Take `CC[C@@H]1CN(Cc2cc([C@H](OCc3cn(CC)nn3)C(C)(C)C(=O)O)ccc2C)S(=O)(=O)c2ccccc2O1` [Example 6, (S)-3-(3-(((R)-4-ethyl-1,1-dioxido-3,4-dihydro-2H-benzo[b][1,4,5]oxathiazepin-2-yl)methyl)-4-methylphenyl)-3-((1-ethyl-1H-1,2,3-triazol-4-yl)methoxy)-2,2-dimethylpropanoic acid]: the 50% effective concentration (EC50) was in the range of 1 to 10 nM.

Take `CCn1cc(CO[C@H](c2ccc(C)c(CN3C[C@@H](C)Cc4ccccc4S3(=O)=O)c2)C(C)(C)C(=O)O)nn1` [Example 84]: the concentration for a half-maximal effect (EC50) was under 1 nM.

In the case of `Cc1ccc(C(OCc2cn(Cc3cccc(Cn4cc(CO)nn4)c3)nn2)C(C)(C)C(=O)O)cc1CN1C[C@@H](C)Oc2ccccc2S1(=O)=O` (stereo partly drawn) [Example 39, 3-((1-(3-((4-(Hydroxymethyl)-1H-1,2,3-triazol-1-yl)methyl)benzyl)-1H-1,2,3-triazol-4-yl)methoxy)-2,2-dimethyl-3-(4-methyl-3-(((R)-4-methyl-1,1-dioxido-3,4-dihydro-2H-benzo[b][1,4,5]oxathiazepin-2-yl)methyl)phenyl)propanoic acid], the EC50 lay in the range of 10 to 100 nM.

For `COCCOCCn1cc(CO[C@H](c2ccc(C)c(CN3C[C@@H](C)Oc4ccccc4S3(=O)=O)c2)C(C)(C)C(=O)O)nn1` [Example 80, (R)-3-((1-(2-(2-methoxyethoxy)ethyl)-1H-1,2,3-triazol-4-yl)methoxy)-2,2-dimethyl-3-(4-methyl-3-(((R)-4-methyl-1,1-dioxido-3,4-dihydro-2H-benzo[b][1,4,5]oxathiazepin-2-yl)methyl)phenyl)propanoic acid], the EC50 was 1 to 10 nM.

For the compound `CC[C@H]1Cc2cccnc2CN(Cc2cc([C@@H](OCc3cn(CC)nn3)C(C)(C)C(=O)O)ccc2C)C1` [Example 115, (R)-methyl 3-((1-ethyl-1H-1,2,3-triazol-4-yl)-methoxy)-3-(3-((S)-6-ethyl-6,7-dihydro-5H-pyrido[2,3-c]azepin-8(9H)-yl)methyl)-4-methylphenyl)-2,2-dimethyl-propanoic acid, trifluoroacetate], the EC50 lay within 1 to 10 nM.

Consider `CCCn1cc(CO[C@H](c2ccc(C)c(CN3C[C@@H](C)Cc4ncccc4S3(=O)=O)c2)C(C)(C)C(=O)O)nn1` [Example 89, (R)-2,2-dimethyl-3-(4-methyl-3-(((S)-4-methyl-1,1-dioxido-4,5-dihydropyrido[2,3-f][1,2]thiazepin-2(3H)-yl)methyl)phenyl)-3-((1-propyl-1H-1,2,3-triazol-4-yl)methoxy)propanoic acid], for which the half-maximal effective concentration (EC50) is under 1 nM.

Take `Cc1ccc(C(OCc2cn(CC3CCCN(C(=O)OC(C)(C)C)C3)nn2)C(C)(C)C(=O)O)cc1CN1C[C@@H](C)Oc2ccccc2S1(=O)=O` (stereo partly drawn) [Example 18, 3-((1-((1-(Tert-butoxycarbonyl)piperidin-3-yl)methyl)-1H-1,2,3-triazol-4-yl)methoxy)-2,2-dimethyl-3-(4-methyl-3-(((R)-4-methyl-1,1-dioxido-3,4-dihydro-2H-benzo[b][1,4,5]oxathiazepin-2-yl)methyl)phenyl)propanoic acid]: the EC50 was 1 to 10 nM.

`CC[C@@H]1CN(Cc2cc([C@@H](OCc3cn(C)nn3)C(C)(C)C(=O)O)ccc2C)S(=O)(=O)c2ccccc2O1` [Example 120, (R)-3-(3-(((R)-4-Ethyl-1,1-dioxido-3,4-dihydro-2H-benzo[b][1,4,5]oxathiazepin-2-yl)methyl)-4-methylphenyl)-2,2-dimethyl-3-((1-methyl-1H-1,2,3-triazol-4-yl)methoxy)propanoic acid]: the EC50 is under 1 nM.

In the case of `Cc1ccc(C(OCc2cn(Cc3cccc(Cn4cc(C(=O)O)nn4)c3)nn2)C(C)(C)C(=O)O)cc1CN1C[C@@H](C)Oc2ccccc2S1(=O)=O` (stereo partly drawn) [Example 43, 1-(3-((4-((2-Carboxy-2-methyl-1-(4-methyl-3-(((R)-4-methyl-1,1-dioxido-3,4-dihydro-2H-[b][1,4,5]oxathiazepin-2-yl)methyl)phenyl)propoxy)methyl)-1H-1,2,3-triazol-1-yl)methyl)benzyl)-1H-1,2,3-triazole-4-carboxylic acid], the EC50 lay within 100 to 1000 nM.

As to `CC(=O)N1CCC(Cn2cc(COC(c3ccc(C)c(CN4C[C@@H](C)Oc5ccccc5S4(=O)=O)c3)C(C)(C)C(=O)O)nn2)CC1` (stereo partly drawn) [Example 32, 3-((1-((1-Acetylpiperidin-4-yl)methyl)-1H-1,2,3-triazol-4-yl)methoxy)-2,2-dimethyl-3-(4-methyl-3-(((R)-4-methyl-1,1-dioxido-3,4-dihydro-2H-benzo[b][1,4,5]oxathiazepin-2-yl)methyl)phenyl)propanoic acid], the EC50 lay within 10 to 100 nM.

Consider `CCc1cn(Cc2cccc(Cn3cc(COC(c4ccc(C)c(CN5C[C@@H](C)Oc6ccccc6S5(=O)=O)c4)C(C)(C)C(=O)O)nn3)c2)nn1` (stereo partly shown) [Example 38], for which the EC50 lay in the range of 10 to 100 nM.

In the case of `CCn1cc(COC(c2ccc(C)c(CN3CC(C)(C)Oc4ccccc4S3(=O)=O)c2)C(C)(C)C(=O)O)nn1` (stereo not shown) [Example 12, 3-(3-((4,4-dimethyl-1,1-dioxido-3,4-dihydro-2H-benzo[b][1,4,5]oxathiazepin-2-yl)methyl)-4-methylphenyl)-3-((1-ethyl-1H-1,2,3-triazol-4-yl)methoxy)-2,2-dimethylpropanoic acid], the EC50 was in the range of 1 to 10 nM.

For the compound `CCn1cc(CO[C@@H](c2ccc(C)c(CN3C[C@H](C)Cc4ncccc4S3(=O)=O)c2)C(C)(C)C(=O)O)nn1` [Example 64, (3S)-((1-ethyl-1H-1,2,3-triazol-4-yl)methoxy)-2,2-dimethyl-3-(4-methyl-3-(((R)-4-methyl-1,1-dioxido-4,5-dihydropyrido[2,3-f][1,2]thiazepin-2(3H)-yl)methyl)phenyl)propanoic acid], the EC50 lay in the range of 100 to 1000 nM.

Regarding `Cc1ccc([C@H](OCc2cn(Cc3ccc(Cn4cc(CO[C@@H](c5ccc(C)c(CN6C[C@@H](C)Oc7ccccc7S6(=O)=O)c5)C(C)(C)C(=O)O)nn4)cc3)nn2)C(C)(C)C(=O)O)cc1CN1C[C@@H](C)Oc2ccccc2S1(=O)=O` (relative stereo) [Example 46, (R,rel-(3S,3'S))-3,3′-(((1,1′-(1,4-phenylenebis(methylene))bis(1H-1,2,3-triazole-4,1-diyl))bis(methylene))bis(oxy))bis(2,2-dimethyl-3-(4-methyl-3-(((R)-4-methyl-1,1-dioxido-3,4-dihydro-2H-benzo[b][1,4,5]oxathiazepin-2-yl)methyl)phenyl)propanoic acid)], the EC50 was 10 to 100 nM.

In the case of `CC[C@@H]1CN(Cc2cc(C(OCc3cn(Cc4cccc(C(=O)O)c4)nn3)C(C)(C)C(=O)O)ccc2C)S(=O)(=O)c2ccccc2O1` (stereo partly drawn) [Example 21, 3-((4-((2-Carboxy-1-(3-(((R)-4-ethyl-1,1-dioxido-3,4-dihydro-2H-benzo[b][1,4,5]oxathiazepin-2-yl)methyl)-4-methylphenyl)-2-methylpropoxy)methyl)-1H-1,2,3-triazol-1-yl)methyl)benzoic acid], the concentration for a half-maximal effect (EC50) was in the range of 100 to 1000 nM.

Take `CC[C@@H]1Cc2ccccc2S(=O)(=O)N(Cc2cc([C@H](OCc3cn(CC)nn3)C(C)(C)C(=O)O)ccc2C)C1` [Example 69, (3S)-((1-ethyl-1H-1,2,3-triazol-4-yl)methoxy)-2,2-dimethyl-3-(4-methyl-3-(((R)-4-ethyl-1,1-dioxido-4,5-dihydrobenzo[f][1,2]thiazepin-2(3H)-yl)methyl)phenyl)propanoic acid]: the EC50 lay within 10 to 100 nM.

Turning to `CCn1cc(COC(c2ccc(C)c(CN(C3CCCCC3)S(=O)(=O)c3ccc(OC)cc3)c2)C(C)(C)C(=O)O)nn1` (stereo not shown) [Example 97, 3-(3-(((N-cyclohexyl-4-methoxyphenyl)sulfonamido)methyl)-4-methylphenyl)-3-((1-ethyl-1H-1,2,3-triazol-4-yl)methoxy)-2,2-dimethylpropanoic acid], the concentration giving a half-maximal response (EC50) is 100 to 1000 nM.
